According to patent US20160287624A1, “Water-Soluble Vitamins to Increase Oral Absorption and Bioavailability” (NESTEC S.A., priority 2013, published 2016):

How the values were obtained:
[1] = Stability of vitamin B12 in simulated gastric fluid (HPLC-UV); assay type: physicochemical; details: 37° C.
Protocol: The pH of simulated gastric fluid was measured. […] The solutions were incubated at 37° C. in the water bath of a shaker operated at 50 rpm. After 2 hrs. of incubation, 1 mL solution was taken for HPLC analysis.
The pure vitamin B12 (F4) was also reconstituted in gastric fluid as an unformulated control. Both sample solutions were made to contain 20 μg/ml vitamin B12, wrapped with aluminum foil to avoid exposure to light, and incubated at 37° C. for two hours. The solutions were then stored in a freezer for 22 hrs. The frozen samples were thawed to room temp before HPLC-UV analysis.

[2] = rat, in vivo, po
Protocol: Rats (n=6 per group) were orally administered at a dose equivalent to 2 mg/70 kg person in a free form (unformulated control F4) or a formulation of Formula 1 (API:Stevia at 1:25 w/w), Formula 2 (API:Stevia at 1:50 w/w), or Formula 3 (API:Stevia at 1:125 w/w).
To answer the question whether the solubilizer enhanced the absorption of vitamin B12, the four formulations were assessed in a Sprague Dawley rat model at the vitamin B12 dose equivalent to 1 mg/70 kg person. Each group (formulation) had 6 rats (n=6). Each rat was orally gavaged and blood collected at 11 time points during a 12-hour period. The plasma samples were stored in a freezer prior to vitamin B12 analyses. Relative bioavailability was calculated by comparing the area under the time-concentration curves of formulated over the unformulated control.
Vitamin B12 in rat plasma over time after oral gavage with baseline normalized for all treatments were analyzed by a radioimmunoassay method. The vitamin B12 in rat plasma over a 12-hr period at 15, 30, 45, 60, 90 min, and 2, 2.5, 4, 6, 8, and 12 h after oral gavage at a dose equivalent to 2 mg/70 kg person in a free form (unformulated control) or a formulated form of Formula 1 (vitamin B12:stevia at 1:25 w/w), Formula 2 (vitamin B12:stevia at 1:50 w/w), or Formula 3 (vitamin B12:stevia at 1:125 w/w) were analyzed.

[3] = tested on: Caco-2 cell monolayer; assay: Absorption assessment in Caco-2 cell monolayer (A->B permeability)
Description: (§1) A Caco-2 cellular model was used to study the effect of the stevia solubilizer on the intestinal absorption of vitamin B12. The Caco-2 cell monolayer model is the pharmaceutical industry standard for predicting human oral absorption. The test samples included:

[4] = as above; details: human, Caco-2, Mean A->B Papp, assay duration 2 hr; controls 10 μM, formulations analyte test conc. 20 μg/mL
Description: as §1

| Stability of vitamin B12 in gastric fluid ([1]; over a two hour period, 20 μg/ml) | R.E. (relative error) 2 hr ([1]; simulated gastric fluid, 2 hr) [%] | Determined Concentration 2 hr ([1]; simulated gastric fluid, 2 hr, 0 hr 20.2 μg/mL) [µg/mL] | Time during which vitamin B12 in plasma was detected [2] [min] | Tmax (the time at which Cmax is reached) [2] [h] | Permeability across Caco-2 cell monolayer [3] | Mean A->B Papp ([3]; assay duration 2 hr, controls 10 μM, formulations analyte test conc. 20 μg/mL) | Papp A→B at 2 h, 10 μM [4] [×10⁻⁶ cm/s] | SMILES |
| --- | --- | --- | --- | --- | --- | --- | --- | --- |
| stable | 3.7 | 21.0 | 480 | 1.5 | not permeable | <LLOQ^c | – | C/C1=C2/[N-][C@H]([C@H](CC(N)=O)[C@@]2(C)CCC(=O)NC[C@@H](C)OP(=O)([O-])O[C@H]2[C@@H](O)[C@@H](n3cnc4cc(C)c(C)cc43)O[C@@H]2CO)[C@]2(C)N=C(/C(C)=C3N=C(/C=C4N=C1[C@@H](CCC(N)=O)C\4(C)C)[C@@H](CCC(N)=O)[C@]\3(C)CC(N)=O)[C@@H](CCC(N)=O)[C@]2(C)CC(N)=O.[CH3-].[Co+3] [Formula F4, methylcobalamin] |
| – | – | – | – | – | – | – | 0.3 | CNC(=C[N+](=O)[O-])NCCSCc1ccc(CN(C)C)o1 [Ranitidine] |
